{
  "source": "patent US10072009B2",
  "about": "“N-substituted beta-carbolinium compounds as potent P-glycoprotein inducers” (Council of Scientific and Industrial Research, priority 2014, dated 2018)",
  "key": {"P-glycoprotein": {"system": "P-glycoprotein", "assay": "P-glycoprotein-induction assay (rhodamine123 cell exclusion method) in LS-180 cells", "conditions": "for % Rh123 accumulation in LS-180 cells after 48 h: control = 100; for pEC50: read-out: Pgp induction EC50 value, LS180 cells treated 48 h, Rh123 fluorescence vs concentration"}, "[1]": {"assay": "Thermodynamic equilibrium solubility", "type": "physicochemical", "conditions": "for solubility: 25 °C, thermodynamic from solid", "experimental": "Determination of thermodynamic equilibrium solubility. The compounds were first dissolved in methanol to prepare stock solutions (100 and 1000 μg/mL) Different concentrations of stock solutions were pipetted into the 96-well plates and the solvent was evaporated to ensure that solid drug was present in the beginning of the experiment. […] The plates were kept overnight for equilibration of drug in medium. Later, the plates were centrifuged at 3000 rpm for 15 min (Jouan centrifuge BR4i). Supernatant (50 μl) was pipetted into UV 96-well plates (Corning® 96 Well Clear Flat Bottom UV-Transparent Microplate) for analyses with plate reader (SpectraMax Plus384) at λmax of 350 nm. The analyses were performed in triplicate for each compound. The solubility curve of concentration (μg/mL) vs absorbance was plotted to find out saturation point and the corresponding concentration was noted. The solubility of fascaplysin (1) and compounds 6 and 11 was determined."}, "[2]": {"system": "mouse leukemia cells L-1210", "conditions": "read-out: ED50, suppression of proliferation of L-1210 cells; cited from earlier work"}, "[3]": {"target": "acetylcholinesterase (AChE)", "conditions": "read-out: AChE inhibition IC50; cited from earlier work"}, "[4]": {"conditions": "compounds at 5 μM (table footnote), decrease indicates Pgp induction"}},
  "note": "pEC50, pIC50: −log10 of the molar value. Where two headings read alike, the source gives them in different places.",
  "data": [
    {"molecule": "O=C1c2ccc(Cl)cc2-[n+]2ccc3c([nH]c4ccccc43)c21", "note": "[Compound 2, 4-chloro-fascaplysin]", "values": [
      {"measurement": "% Rh123 accumulation in LS-180 cells after 48 h", "setting": "P-glycoprotein; [4]", "result": "57.1 ± 9.2", "unit": "%"}
    ]},
    {"molecule": "Cn1c2ccccc2c2cc[n+](C)c(C(=O)c3c[nH]c4ccccc34)c21", "note": "[Compound 10, 1-(3-indoloyl)-9,N-dimethyl beta-carbolinium iodide]", "values": [
      {"measurement": "% Rh123 accumulation in LS-180 cells after 48 h", "setting": "P-glycoprotein; [4]", "result": "77.6 ± 7.6", "unit": "%"}
    ]},
    {"molecule": "Cn1c2ccccc2c2cc[n+](C)c(C(=O)c3ccccc3Br)c21", "note": "[Compound 11, 1-(2-bromo-benzoyl)-9,N-dimethyl beta-carbolinium iodide]", "values": [
      {"measurement": "Solubility in Water", "setting": "[1]", "result": 800, "unit": "µg/mL"},
      {"measurement": "solubility", "setting": "[1]; water, Solubility in Water", "result": "> 800", "unit": "µg/mL"},
      {"measurement": "% Rh123 accumulation in LS-180 cells after 48 h", "setting": "P-glycoprotein; [4]", "result": "70.1 ± 6.7", "unit": "%"},
      {"measurement": "pEC50", "setting": "P-glycoprotein", "result": 8.52}
    ]},
    {"molecule": "O=C1c2cc(F)c(F)cc2-[n+]2ccc3c([nH]c4ccccc43)c21", "note": "[Compound 6, 4,5-difluoro-fascaplysin]", "values": [
      {"measurement": "Solubility in Water", "setting": "[1]", "result": ">1500", "unit": "µg/mL"},
      {"measurement": "solubility", "setting": "[1]; aqueous buffer, Solubility in PBS", "result": 80, "unit": "µg/mL"},
      {"measurement": "solubility", "setting": "[1]; fassgf or other biorelevant, Solubility in SIF", "result": "< 5", "unit": "µg/mL"},
      {"measurement": "solubility", "setting": "[1]; simulated gastric fluid, Solubility in SGF", "result": 80, "unit": "µg/mL"},
      {"measurement": "solubility", "setting": "[1]; water, Solubility in Water", "result": "> 800", "unit": "µg/mL"},
      {"measurement": "% Rh123 accumulation in LS-180 cells after 48 h", "setting": "P-glycoprotein; [4]", "result": "49.6 ± 1.2", "unit": "%"},
      {"measurement": "pEC50", "setting": "P-glycoprotein", "result": 8.70}
    ]},
    {"molecule": "O=C1c2ccc(Cl)c(Cl)c2-[n+]2ccc3c([nH]c4ccccc43)c21", "note": "[Compound 4, 3,4-dichloro-fascaplysin]", "values": [
      {"measurement": "% Rh123 accumulation in LS-180 cells after 48 h", "setting": "P-glycoprotein; [4]", "result": "57.8 ± 8.3", "unit": "%"}
    ]},
    {"molecule": "CO[C@H]1/C=C/O[C@@]2(C)Oc3c(C)c(O)c4c(O)c(c(/C=N/N5CCN(C)CC5)c(O)c4c3C2=O)NC(=O)/C(C)=C\\C=C\\[C@H](C)[C@H](O)[C@@H](C)[C@@H](O)[C@@H](C)[C@H](OC(C)=O)[C@@H]1C", "note": "[Rifampicin, reference compound]", "values": [
      {"measurement": "% Rh123 accumulation in LS-180 cells after 48 h", "setting": "P-glycoprotein; rifampicin 10 μM, reference Pgp inducer", "result": "67.1 ± 4.6", "unit": "%"}
    ]},
    {"molecule": "O=C1c2cc(F)c(Cl)cc2-[n+]2ccc3c([nH]c4ccccc43)c21", "note": "[Compound 3, 4-chloro-5-fluoro-fascaplysin]", "values": [
      {"measurement": "% Rh123 accumulation in LS-180 cells after 48 h", "setting": "P-glycoprotein; [4]", "result": "55.5 ± 6.9", "unit": "%"}
    ]},
    {"molecule": "Cn1c2ccccc2c2cc[n+](C)c(C(=O)c3ccccc3Cl)c21", "note": "[Compound 9, 1-(2-chloro-benzoyl)-9, N,N-dimethyl beta-carbolinium iodide]", "values": [
      {"measurement": "% Rh123 accumulation in LS-180 cells after 48 h", "setting": "P-glycoprotein; [4]", "result": "71.4 ± 8.4", "unit": "%"}
    ]},
    {"molecule": "Cn1c2ccccc2c2cc[n+](C)c(C(=O)c3ccccc3)c21", "note": "[Compound 8, 1-benzoyl-9,N-dimethyl beta-carbolinium iodide]", "values": [
      {"measurement": "% Rh123 accumulation in LS-180 cells after 48 h", "setting": "P-glycoprotein; [4]", "result": "75.2 ± 9.1", "unit": "%"}
    ]},
    {"molecule": "O=C1c2cc(Cl)ccc2-[n+]2ccc3c([nH]c4ccccc43)c21", "note": "[Compound 7, 5-chloro-fascaplysin]", "values": [
      {"measurement": "% Rh123 accumulation in LS-180 cells after 48 h", "setting": "P-glycoprotein; [4]", "result": "58.7 ± 7.8", "unit": "%"}
    ]},
    {"molecule": "6-chloro-fascaplysin [Compound 5]", "values": [
      {"measurement": "% Rh123 accumulation in LS-180 cells after 48 h", "setting": "P-glycoprotein; [4]", "result": "59.2 ± 6.7", "unit": "%"}
    ]},
    {"molecule": "Cn1c2ccccc2c2cc[n+](C)c(C(=O)c3ccc(C(F)(F)F)cc3)c21", "note": "[Compound 12, 1-(4-trifluoromethyl-benzoyl)-9,N-dimethyl beta-carbolinium iodide]", "values": [
      {"measurement": "% Rh123 accumulation in LS-180 cells after 48 h", "setting": "P-glycoprotein; [4]", "result": "78.5 ± 5.8", "unit": "%"}
    ]},
    {"molecule": "O=C1c2ccccc2-[n+]2ccc3c([nH]c4ccccc43)c21.[Cl-]", "note": "[Compound 1, Fascaplysin]", "values": [
      {"measurement": "pEC50", "setting": "[2]", "result": 6.70},
      {"measurement": "solubility", "setting": "[1]; aqueous buffer, phosphate buffer saline, read-out: Solubility in PBS", "result": "> 1500", "unit": "µg/mL"},
      {"measurement": "solubility", "setting": "[1]; simulated gastric fluid, simulated gastric fluid, read-out: Solubility in SGF", "result": "> 1500", "unit": "µg/mL"},
      {"measurement": "solubility", "setting": "[1]; simulated intestinal fluid, read-out: Solubility in SIF", "result": "> 1500", "unit": "µg/mL"},
      {"measurement": "solubility", "setting": "[1]; water, water, 25±1° C., thermodynamic equilibrium, read-out: Solubility in Water", "result": "> 800", "unit": "µg/mL"},
      {"measurement": "Solubility in Water", "setting": "[1]; water, 25±1° C., thermodynamic equilibrium", "result": ">1500", "unit": "µg/mL"},
      {"measurement": "pIC50", "setting": "[3]", "result": 5.83},
      {"measurement": "pEC50", "setting": "P-glycoprotein", "result": 8.55}
    ]},
    {"molecule": "Cn1c2ccccc2c2cc[n+](C)c(C(=O)c3ccccc3F)c21", "note": "[Compound 13, 1-(2-fluoro-benzoyl)-9,N-dimethyl beta-carbolinium iodide]", "values": [
      {"measurement": "% Rh123 accumulation in LS-180 cells after 48 h", "setting": "P-glycoprotein; [4]", "result": "79.0 ± 6.0", "unit": "%"}
    ]}
  ]
}
